Experimental data taken from article PMC10147685, “Safety, tolerability, and pharmacokinetics of Aurora kinase B inhibitor AZD2811: a phase 1 dose-finding study in patients with advanced solid tumours” (British Journal of Cancer, 2023).

How the values were obtained:
[1] = test system: patients with advanced solid tumours; experiment: Phase 1 dose-escalation: safety, DLTs, AEs (CTCAE v4.03); format: in vivo
Description: AZD2811 was administered as an IV infusion over 2 h. The study included 12 dose-escalation cohorts. In Cohorts 1–6, dosing took place on Days 1 and 4 of a 28-day cycle, at 15 mg, 25 mg, 38 mg, 51 mg, 100 mg, and 200 mg. In Cohort 1, the starting dose was to be administered to a single patient on Days 1 and 4. […] Starting with Cohort 2, at least 3 evaluable patients were enrolled at each dose level (3 + 3 design) and were evaluated for 1 cycle before escalation to the next dose level. If one patient experienced a DLT, an additional 3 patients were treated with the same dose. Therefore, a maximum of 6 evaluable patients could be enrolled per dose level.
In Cohort 7, the Day 4 dose was removed from the schedule, and patients received AZD2811 200 mg on Day 1 of a 28-day cycle. Granulocyte colony-stimulating factor (G-CSF; filgrastim [short-acting G-CSF] or pegfilgrastim [long-acting G-CSF]) as primary prophylaxis for neutropenia was optional in Cohorts 7–9. In Cohorts 8–12, the cycle length was reduced, so dosing occurred on Day 1 of a 21-day cycle, at doses of 200–600 mg. Patients in Cohorts 10–12 received mandatory G-CSF on Day 8 after dosing in Cycle 1 as primary prophylaxis for neutropenia. PEGylated G-CSF (e.g. pegfilgrastim) could not be given later than Day 8 (in a 21-day cycle) due to its long half-life. G-CSF had to be discontinued at least 48 h prior to the next dose of AZD2811.
A DLT was defined as any of the following toxicities that occurred during the DLT evaluation period (the first 28 days [if a 28-day cycle] or the first 21 days [if a 21-day cycle] from the start of AZD2811), unless unequivocally due to underlying malignancy or an extraneous cause: grade 4 neutropenia for >7 days or febrile neutropenia; grade 4 thrombocytopenia or grade 3 thrombocytopenia associated with bleeding; concurrent grade ≥3 elevation of total bilirubin, alanine aminotransferase (ALT), aspartate aminotransferase (AST) or alkaline phosphatase (ALP) lasting >48 h, or any change in liver function test results consistent with Hy’s Law; any grade ≥3 non-haematological AE (except grade 3 nausea, vomiting, stomatitis and/or diarrhoea that was controlled within 4 days with standard supportive care, or grade 3 elevations in ALT/AST that return to meet initial eligibility criteria within 7 days of study drug interruption); inability to receive all doses in Cycle 1 due to treatment-related toxicity; or grade ≥2 non-haematological toxicity at any time during treatment that was deemed to be dose-limiting by the investigator and the medical monitor.
(§1) AEs were assessed throughout the treatment and follow-up periods. Patients were followed until all treatment-related toxicity resolved, or for at least 30 days post-study drug discontinuation. AEs were graded according to CTCAE v4.03. Venous blood samples (4 mL) for measurement of AZD2811 concentrations were collected at Cycle 1 Days 1–6, 8, 15, 16, and 22 and Cycle 2 Day 1 in Cohorts 1–6; Cycle 1 Days 1, 4, 8, 12, and 22 in Cohort 7; Cycle 1 Days 1, 4, 8, 12, and 15 and Cycle 2 Day 1 in Cohorts 8–12. Tumour imaging assessments using computed tomography or magnetic resonance imaging of the chest and abdomen/pelvis were performed at screening (≤28 days prior to initiation of treatment), and then every 2 cycles.
The safety analysis set comprised all patients who received at least one dose of AZD2811. The PK analysis set comprised all patients who received at least one dose of AZD2811 with at least one reportable concentration. […] There was no formal statistical analysis of safety and efficacy data. The numbers of patients experiencing each AE were summarised by Medical Dictionary for Regulatory Activities (MedDRA) version 22.1 system organ class, MedDRA preferred term, and CTCAE grade. The ORR and best overall response based on RECIST 1.1 were summarised. AZD2811 blood concentrations and derived PK parameters were summarised by dose regimen. […]

advanced solid tumours = experiment: Preliminary antitumour activity (RECIST v1.1 best overall response); format: in vivo, human
Description: as §1
The primary objective was to evaluate the safety profile and determine the MTD/RP2D and schedule of AZD2811 by assessing the incidence of DLTs, AEs, and abnormal laboratory test results. Secondary objectives were evaluation of PK parameters and preliminary assessment of antitumour activity, including objective response rate (ORR [complete response + partial response (CR + PR)]) based on RECIST v1.1, and incidence of best overall response, stable disease (SD) and progressive disease (PD).
The safety analysis set comprised all patients who received at least one dose of AZD2811. The PK analysis set comprised all patients who received at least one dose of AZD2811 with at least one reportable concentration. […] There was no formal statistical analysis of safety and efficacy data. The numbers of patients experiencing each AE were summarised by Medical Dictionary for Regulatory Activities (MedDRA) version 22.1 system organ class, MedDRA preferred term, and CTCAE grade. The ORR and best overall response based on RECIST 1.1 were summarised. AZD2811 blood concentrations and derived PK parameters were summarised by dose regimen. Summary statistics were calculated for area under the curve (AUC), time of maximum concentration (tmax), and maximum concentration after a single dose (Cmax).

[2] = test system: animal models of SCLC and diffuse large B-cell lymphoma (DLBCL); parameters: method as in PMID 26865565, PMID 30872381; conditions: at half the dose intensity of barasertib; cited from earlier work
LS- or ES-SCLC = conditions: cited from earlier work

CCN(CCO)CCCOc1ccc2c(Nc3cc(CC(=O)Nc4cccc(F)c4)n[nH]3)ncnc2c1 [AZD2811, AZD1152 hydroxyquinazoline pyrazole anilide]
MTD/RP2D ([1]; Day 1 of a 21-day cycle with mandatory G-CSF on Day 8): 500 mg | Dose reduction due to AZD2811-related AEs, patients ([1]; human, in vivo): 4.5% | Dose reductions due to AZD2811-related AEs, patients ([1]; human, in vivo): 17.2% | Doses at which ANC counts <500 cells/μL were observed ([1]; human, in vivo): ≥ 200 mg/cycle | Doses that elicit a pharmacological response in bone marrow ([1]; human, in vivo): > 200 mg/cycle | Neutropenia ([1]; in vivo): not observed | Patients with dose-limiting toxicities ([1]; in vivo): Five | Deaths due to AEs on treatment ([1]; not considered related to AZD2811: cardiac arrest (Cohort 9), sepsis (Cohort 11)): Two | Duration of SD (advanced solid tumours; 1 patient with cancer of pancreaticobiliary origin in Cohort 8): 66 weeks | Treatment discontinuation due to progressive disease (advanced solid tumours; Cohorts 1–6): 83.3% | Treatment discontinuation due to progressive disease (advanced solid tumours; Cohorts 7–12): 81.5% | Best overall response: Not evaluable (advanced solid tumours; Total (N = 51)): 5 (9.8) n (%) | Best overall response: Not evaluable, Incomplete post-baseline assessments (advanced solid tumours; Total (N = 51)): 4 (7.8) n (%) | Best overall response: Not evaluable, Stable disease <2 cycles (advanced solid tumours; Total (N = 51)): 1 (2.0) n (%) | Best overall response: Progressive disease (advanced solid tumours; Total (N = 51)): 22 (43.1) n (%) | Best overall response: Progressive disease, Death (advanced solid tumours; Total (N = 51)): 3 (5.9) n (%) | Best overall response: Progressive disease, RECIST progression (advanced solid tumours; Total (N = 51)): 19 (37.3) n (%) | Best overall response: Stable disease ≥2 cycles (advanced solid tumours; Total (N = 51), two cycles = 56 days in 28-day cycles, 42 days in 21-day cycles): 23 (45.1) n (%) | Complete responses (CRs) (advanced solid tumours; all cohorts): no CRs | Best overall response: partial response, patients (advanced solid tumours; all cohorts, n = 1 of 51): 2.0% | Best overall response: Partial response (advanced solid tumours; evaluable-for-efficacy analysis set, Total (N = 51), all cohorts): 1 (2.0) n (%) | Longest duration of therapy (advanced solid tumours; patient with adenocarcinoma of the breast in Cohort 7, best overall response SD): > 17 months | Reduction from baseline in sum of target lesion diameters (advanced solid tumours; patient with prostate cancer in Cohort 6 with a PR): 80% | Efficacy and toxicity compared with barasertib [2]: greater efficacy and less toxicity | Patients with SD (LS- or ES-SCLC; 200 mg AZD2811 on Days 1 and 4 every 28 days, 5/15 patients): 33.3% | Objective responses (LS- or ES-SCLC; 200 mg AZD2811 on Days 1 and 4 every 28 days, 15 patients): no objective responses | Septic shock due to pneumonia with grade 4 neutropenia, patients (LS- or ES-SCLC; without prophylactic G-CSF, 1 of 15 patients): 6.7% | Febrile neutropenia, patients (LS- or ES-SCLC; without prophylactic G-CSF, 6 of 15 patients): 40.0% | Target-related grade ≥3 neutropenia, patients (LS- or ES-SCLC; without prophylactic G-CSF, 9/15 patients): 60.0%
